This is an account of results in PubChem BioAssay (NCI).

Among the test systems are MCF7 breast; MOLT-4 leukemia; OVCAR-8 ovarian; RPMI-8226 leukemia; HCT-15 colon; SNB-75 CNS; UACC-62 melanoma; SK-MEL-2 melanoma; TK-10 renal; SF-539 CNS.
Common to all, as to test: growth of human tumour cells (NCI), 48 h

Where “and” joins values, the source holds several entries; their conditions need not be identical. Identical values can stand only once.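 Assay format: 96-well plates, 48-hour exposure. GI50 marks 50% less growth. TGI denotes the concentration required for complete inhibition of growth.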

For `O=C(O)C(Cc1ccccc1)N1C(=O)/C(=C/C(Cl)=C/c2ccc([N+](=O)[O-])cc2)SC1=S` (stereo unspecified), the GI50 with MCF7 breast was 2.38 µM; in the assay with MOLT-4 leukemia, 3.14 µM; with OVCAR-8 ovarian, 3.13 µM; in the assay with RPMI-8226 leukemia, 3.22 µM; in the assay on HCT-15 colon, 1.92 µM; in the assay on SNB-75 CNS, 1.96 µM. Also, the figures for the GI50 in the assay on UACC-62 melanoma and in the assay with SK-MEL-2 melanoma were 2 µM and 1.87 µM, respectively. In addition, the TGI was 10.7 µM with MCF7 breast; over 100 µM in the assay with MOLT-4 leukemia; over 100 µM with OVCAR-8 ovarian; over 100 µM in the assay with RPMI-8226 leukemia; 4.58 µM in the assay with HCT-15 colon; 5.37 µM in the assay with SNB-75 CNS. In addition, the results for the TGI with UACC-62 melanoma and in the assay with SK-MEL-2 melanoma were 4.85 µM and 4.5 µM, respectively.
Regarding `CCCCC[C@H]1C/C=C2/C(=O)C=C[C@@H]2C/C=C\CCCC(=O)O1`, the GI50 in the assay on MCF7 breast was 0.0884 µM; in the assay on MOLT-4 leukemia, 0.143 µM; in the assay on TK-10 renal it was 0.171 µM; in the assay with OVCAR-8 ovarian, 0.149 µM; in the assay on RPMI-8226 leukemia it was 0.117 µM; in the assay with HCT-15 colon, 0.0937 µM. Also, the GI50 with SNB-75 CNS was 0.227 µM; in the assay on SF-539 CNS, 0.16 µM; in the assay on SK-MEL-2 melanoma, 0.114 µM. The TGI in the assay with MCF7 breast came out at 5.44 µM; in the assay with MOLT-4 leukemia, 1.06 µM; in the assay on TK-10 renal, 0.41 µM; with OVCAR-8 ovarian, 5.12 µM; in the assay on RPMI-8226 leukemia it was 0.366 µM; in the assay on HCT-15 colon, 0.26 µM. Further, the TGI was determined as 1.98 µM in the assay on SNB-75 CNS, 0.67 µM with SF-539 CNS and 0.296 µM with SK-MEL-2 melanoma.
Take `OC(Cc1cccc2ccccc12)CN1CCC(c2ccccc2)CC1` (stereo unspecified): the TGI with MCF7 breast is 32.7 µM; in the assay with TK-10 renal it was 28.1 µM; in the assay on OVCAR-8 ovarian, 32 µM; in the assay on RPMI-8226 leukemia, 31.8 µM; in the assay with HCT-15 colon, 30.4 µM; with SNB-75 CNS, 25.3 µM. For the same compound, the results for the TGI in the assay with UACC-62 melanoma and in the assay with SF-539 CNS were 28.9 µM and 31.1 µM, respectively.
For the compound `C/C(=C\c1ccccc1)C(=O)c1c(C)cc(C)cc1C`, the TGI with MOLT-4 leukemia, in the assay with TK-10 renal, in the assay with OVCAR-8 ovarian, in the assay with RPMI-8226 leukemia, in the assay with HCT-15 colon and in the assay on SNB-75 CNS was over 100 µM in each case. Besides, the TGI in the assay on UACC-62 melanoma, with SF-539 CNS and with SK-MEL-2 melanoma was over 100 µM each time.
`CCCC(=O)Nc1cc(/C=C/C(=O)N2C[C@@H]3C[C@]34C2=CC(=O)c2[nH]cc(C)c24)n(C)c1`: the GI50 is 0.0208 µM in the assay with MCF7 breast; 0.0447 µM with OVCAR-8 ovarian; 0.193 µM in the assay with RPMI-8226 leukemia; 0.061 µM in the assay with SNB-75 CNS; 0.0972 µM in the assay on UACC-62 melanoma; 0.151 µM with SK-MEL-2 melanoma. Also, the TGI was 0.134 µM and 0.515 µM in the assay with MOLT-4 leukemia; 0.406 µM and 0.285 µM in the assay with OVCAR-8 ovarian; 3.72 µM and 0.757 µM with RPMI-8226 leukemia; 9.89 µM in the assay with HCT-15 colon; 1.21 µM and 0.248 µM in the assay on SNB-75 CNS; 0.352 µM and 0.222 µM in the assay on UACC-62 melanoma. The TGI is 4.59 µM in the assay on SF-539 CNS; 0.817 µM and 0.287 µM in the assay with SK-MEL-2 melanoma.
Turning to `CCCCS(=O)(=O)c1cc(Nc2ccc(O)c3c2C(=O)c2ccccc2C3=O)ccc1C`, the GI50 in the assay with MCF7 breast was 1.25 µM; in the assay with MOLT-4 leukemia, over 100 µM; with OVCAR-8 ovarian, over 100 µM; in the assay with RPMI-8226 leukemia, over 100 µM; in the assay with HCT-15 colon, 6.03 µM; in the assay with SNB-75 CNS, 21.9 µM. In addition, the GI50 in the assay on UACC-62 melanoma was 2.77 µM; with SF-539 CNS, over 100 µM; in the assay on SK-MEL-2 melanoma, 26.5 µM. The TGI in the assay on MCF7 breast, in the assay with MOLT-4 leukemia, in the assay on OVCAR-8 ovarian, with RPMI-8226 leukemia, in the assay with HCT-15 colon and with SNB-75 CNS was over 100 µM throughout. Further, the TGI in the assay on UACC-62 melanoma, in the assay with SF-539 CNS and with SK-MEL-2 melanoma was over 100 µM throughout.
For the compound `O=C(CC1(O)CCCCC1)OC1CCCC1`, the TGI in the assay with MCF7 breast, in the assay on TK-10 renal, with OVCAR-8 ovarian, in the assay on HCT-15 colon, in the assay with SNB-75 CNS and in the assay on UACC-62 melanoma was over 100 µM each time. Further, the TGI with SF-539 CNS and in the assay on SK-MEL-2 melanoma was over 100 µM in each case.
As to `CNC(=O)NCCCCC(NC(C)=O)C(=O)NCc1ccccc1` (stereo unspecified), the TGI with MOLT-4 leukemia, in the assay on TK-10 renal, in the assay with OVCAR-8 ovarian, in the assay with RPMI-8226 leukemia, in the assay on HCT-15 colon and in the assay with SNB-75 CNS was over 100 µM each time. Also, the TGI with UACC-62 melanoma, in the assay with SF-539 CNS and with SK-MEL-2 melanoma was over 100 µM in each case.
Regarding `C=C(CN1CCN(c2ccccn2)CC1)c1ccc(C(=O)Nc2ccccc2N)cc1`, the GI50 is 3.15 µM in the assay on MCF7 breast; 1.85 µM in the assay on TK-10 renal; 1.5 µM in the assay on OVCAR-8 ovarian; 1.6 µM in the assay on RPMI-8226 leukemia; 1.91 µM with HCT-15 colon; 1.48 µM in the assay with SNB-75 CNS. The GI50 is 1.41 µM with UACC-62 melanoma, 1.5 µM in the assay on SF-539 CNS and 1.87 µM in the assay with SK-MEL-2 melanoma. The TGI was over 50 µM in the assay on MCF7 breast; 8.23 µM with TK-10 renal; over 50 µM in the assay with OVCAR-8 ovarian; over 50 µM in the assay with RPMI-8226 leukemia; over 50 µM in the assay on HCT-15 colon; 4.68 µM in the assay with SNB-75 CNS. The TGI in the assay on UACC-62 melanoma is 9.99 µM; in the assay with SF-539 CNS, 8.87 µM; with SK-MEL-2 melanoma, over 50 µM.
Regarding `O=C(NCCCN1CCN(CCCNC(=O)Nc2cc(Cl)ccc2Cl)CC1)Nc1cc(Cl)ccc1Cl`, the TGI in the assay on MOLT-4 leukemia was over 100 µM; with TK-10 renal it was over 100 µM; with OVCAR-8 ovarian, over 100 µM; with RPMI-8226 leukemia it was over 100 µM; with HCT-15 colon, over 100 µM; in the assay with SNB-75 CNS it was 82 µM. The TGI in the assay on UACC-62 melanoma, with SF-539 CNS and in the assay on SK-MEL-2 melanoma was over 100 µM each time.
For `CN1C2C=CC(=O)C1C(C#N)C2` (stereo unspecified), the TGI is over 100 µM in the assay on MCF7 breast; over 100 µM in the assay on MOLT-4 leukemia; over 100 µM in the assay with TK-10 renal; 44.8 µM and > 100 µM in the assay with OVCAR-8 ovarian; 73.5 µM and > 100 µM in the assay with HCT-15 colon; over 100 µM with UACC-62 melanoma. Besides, the TGI is 84 µM and > 100 µM in the assay on SF-539 CNS; 32.1 µM and > 100 µM in the assay on SK-MEL-2 melanoma. Further, the GI50 in the assay with OVCAR-8 ovarian is 20.5 µM and 45.7 µM; with SK-MEL-2 melanoma it was 12.5 µM and 88.3 µM.
For the compound `NCCOCCOCC(=O)O`, the TGI in the assay on MOLT-4 leukemia, with TK-10 renal, in the assay with OVCAR-8 ovarian, in the assay on RPMI-8226 leukemia, with HCT-15 colon and with SNB-75 CNS was over 100 µM throughout. For the same compound, the TGI in the assay with UACC-62 melanoma, with SF-539 CNS and with SK-MEL-2 melanoma was over 100 µM each time.
